Results on six compounds are retold here after patent US5446186A, “Structure and synthesis of nitrophenyl-EGTA, a caged calcium, intermediates thereof and a method of producing a high photochemical yield of liberated calcium” (priority 1993, dated 1995).

Series [1] in a line: Quantum yield of photolysis by HPLC, comparison to caged-Pi. It is filed as physicochemical. The method, then:
The filtered output of 1000-W high pressure Hg arc lamp was used to photolyze solutions of NP-EGTA (1.77 mM) or caged-Pi (3.12 mM) in buffer (40 mM hepes, 100 mM KCl, pH 7.2) with absorbances of 0.0105 in a cuvette with a pathlength of […]. Each solution also contained inosine (100 mM) as the internal standard.
On the left, t=0 s, on the fight, t=15 s.
On the left, t=0 s, on the fight, t=15 s. HPLC was performed using a Novapak C18 reverse-phase HPLC column and two Waters 501 pumps fitted with a Waters 680 automated control module delivering 2 ml/min. Pump A delivered […] and pump B 80% acetonitrile/0.052% TFA. The gradient was for 0-5 min 100% A, from 5-20 min a linear change to 80% A, and from 20-40 min 80% A. The eluent was monitored by a Waters 990 photodiode array detector and chromatograms are shown at 260 nm.
The quantum yield of NP-EGTA photolysis was determined by comparison to that of caged-Pi which has previously been determined to have a quantum yield of photolysis of 0.54 (17). The time-course of disappearance of the caged compounds was followed by HPLC analysis of the reaction mixture (FIG. 2). The amount of NP-EGTA or caged-Pi remaining in the reaction mixture was normalized for each HPLC analysis by comparison to a photochemically inert internal standard, inosine (100 mM). […] Under the same conditions (i.e. flux density), 10.3% of NP-EGTA was photolyzed when saturating Ca^a+ (3.0 mM) was present (FIG. 2b). Thus, the quantum yield of photolysis of the NP-EGTA:Ca^2+ complex is 0.23.

Series [2] in a line: Absorption and fluorescence spectral properties. It is filed as physicochemical. The method, then: FIG. 1 is an absorption spectra of nitrophenyl-EGTA. The absorption spectrum of a solution of NP-EGTA ([…]) in buffer (40 mM hepes, 100 mM KCl, pH 7.2) is shown (spectrum a). The spectrum is altered (spectrum b) on addition of saturating Ca^2+ (0.20 mM). Photolysis of this sample for 300 s with the filtered output of a 1-kW Hg are lamp yielded photoproducts with spectrum (c).
The absorption spectra of NP-EGTA without and with saturating Ca^2+ are shown in FIG. 1(a) and (b) respectively. The extinction coefficients at 260 and 347 nm are 5.52×10^3 M^-1 cm^-1 and 974 M^-1 cm^-1 respectively in Ca^2+ -free buffer (40 mM hepes, 100 mM KCl, pH 7.2). Saturating Ca^2+ produces a 10% decrease in the absorption at 260 nm. The absorption spectrum changes to that shown in FIG. 1(c) upon complete photolysis in the presence of Ca^2+. […] In fact, fluo-3 saturated with Ca^2+ is about 2.1×10s-fold more fluorescent at 530 nm than NP-EGTA is at 400 nm.

Series [3] is described as follows: Selectivity for Ca^2+ versus Mg^2+: fluo-3 signal on addition of 1 mM Mg^2+ and on irradiation. It is filed as binding.
A short description of series [4]: Mg^2+ affinity by titration of Mg^2+-indicator mag-fura-red without and with NP-EGTA. It is filed as binding. Particulars: 40 mM hepes, 100 mM KCl, pH 7.2, 25° C.; absorbance at 480 nm. The method, then: The Mg^2+ affinity of NP-EGTA was determined by titration of the Mg^2+ -indicator, mag-fura-red (20 μM) without and with NP-EGTA (10 mM) in buffer (40 mM hepes, 100 mM KCl, pH=7.2) at 25° C.

Series [5] is described as follows: Ca^2+ affinity by titration of chelator with Ca^2+, fluo-3 emission, Scatchard analysis. It is filed as binding. Particulars: 40 mM hepes, 100 mM KCl, pH 7.2, 20° C.; before photolysis. The source says: The affinity of NP-EGTA for Ca^2+ was obtained by titration of the chelator with incremental additions of Ca^2+. […] For any chelator:Ca^a+ complex to function effectively as a caged Ca, the pre-photolysis affinity should be high for two reasons. First, it is crucial that the resting or pre-photolysis [Ca^2+ ] is very low, i.e. that it is non-activating or sub-threshold for the biological system being investigated. The Kd^Ca and the total amounts of Ca^2+ and chelator determine [Ca^2+ ]free. Secondly, the percentage of chelator loaded with Ca^2+ before photolysis is important as this is a factor which determines how much Ca^2+ is liberated upon photolysis, as Ca^2+ can only be photoreleased if it is complexed. Also, if the chelator is frilly loaded, then the photoreleased Ca^2+ will not be rebound by unphotolysed, unloaded chelator, i.e. step increases rather than pulses of Ca^2+ will be produced (see ref. 19, 20).

Series [6] has as its system chemically skinned psoas fibers from rabbit skeletal muscle. Description: Ca-induced contraction of chemically skinned skeletal muscle fibers after laser flash photolysis. It is filed as cell-based. Particulars: for time to achieve half-maximal tension: 15° C., 347 nm ruby laser flash, NP-EGTA:Ca^2+ 1.9 mM at 1 mM free Mg^2+, or DM-nitrophen:Ca^2+ 1.4 mM at 40 μM free Mg^2+; for tension transients, NP-EGTA compared with DM-nitrophen: photoreleased Ca^2+; for maximal contraction / full tension after laser flash: single 347 nm ruby laser flash, free Mg^2+ 1 mM (NP-EGTA), 40 μM (DM-nitrophen); for Ca^2+ release as rate-limiting step for contraction: skinned skeletal muscle fiber. The source says:
The arrow indicates the time of a pulse from a frequency-doubled ruby laser (347 nm). For DM-nitrophen, before photolysis, the muscle-bathing solution contained (mM): Tes (100), HDTA (27.91), ATPNa2 (3.0), creatine phosphate (20), glutathione (10), DM-nitrophen (2.0), MgCl2 (1.19), CaCl2 (1.60). In the NP-EGTA solution there was (mM): Tes (100), HDTA (25.35), ATPNa2 (5.50), creatine phosphate (20), glutathione (10), NP-EGTA (2.1), MgCl2 (7.0), CaCl2 (1.9). The pH of both solutions was 7.0; the ionic strength was 0.2M. Tension development was measured as in Ref. 24.
Photolysis of nitrophenyl-EGTA:Ca^2+ and DM-nitrophen:Ca^2+ complexes were used to release Ca^2+ rapidly in chemically skinned psoas fibers from rabbit skeletal muscle. […] The time to achieve half-maximal tension using NP-EGTA was 17.9 ms and 18.1 ms with DM-nitrophen at 15° C. (see FIG. 4). […] It is interesting that there are no major effects, on the rate of the development of tension nor on the maximal contraction, due to a change in [Mg]free from 40 μM to 1 mM in these experiments.

For series [7] the following is noted: DM-nitrophen:Ca^2+ complex; cited from earlier work.
For series [8] the following is noted: pH 7.2; before photolysis; read-out: Kd for Ca^2+ (comparison chelators); cited from earlier work.
The mark [9] stands for this setting: Ca^2+-free buffer, 40 mM hepes, 100 mM KCl, pH 7.2.

pKd: −log10 of the molar value. Entries after “also recorded” stand apart in the source; their conditions may differ. Read-outs that look alike come from different tables or passages of the source.

In the case of `Cc1ccc(N(CC(=O)O)CC(=O)O)c(O[C@@H]2CCC[C@@H]2Oc2cc(C(O)c3cc4c(cc3[N+](=O)[O-])OCO4)ccc2N(CC(=O)O)CC(=O)O)c1` (some centres unmarked) [nitr-7], under “[chelator]:[Ca^2+] 2 mM:1.50 mM”, the “Ca^2+ released on 50% photolysis” value amounted to 3 mM.
Turning to `Cc1ccc(N(CC(=O)O)CC(=O)O)c(OCCOc2cc(C(O)c3cc4c(cc3[N+](=O)[O-])OCO4)ccc2N(CC(=O)O)CC(=O)O)c1` (centres unmarked) [nitr-5], for the setting “1.0 mM Ca^2+ present”, the “Ca^2+ released on 50% photolysis” value worked out at 0.80 mM and the “prephotolysis free [Ca^2+]” value is given as 0.145 mM.
Take `O=C(O)CN(CCOCCOCC(c1ccccc1[N+](=O)[O-])N(CC(=O)O)CC(=O)O)CC(=O)O` (centres unmarked) [NP-EGTA]: the “quantum yield of photolysis, in the absence of Ca^2+” value in series [1] (Ca^2+-free, pH 7.2) is recorded as 0.20. The “percent photolyzed with Ca^2+” value in series [1] (after 15 s, saturating Ca^2+ (3.0 mM), 0.25 min, 1770 µM) is 10.3%. Moreover, the “percent photolyzed without Ca^2+” value in series [1] (same flux density, Ca^2+-free, 1770 µM) came out at 8.91%. Besides, the “quantum yield of photolysis, in the presence of Ca^2+” value in series [1] (saturating Ca^2+ (3.0 mM), pH 7.2) stood at 0.23. Moreover, in series [1] (versus DM-nitrophen (ref. 4)), the “photolysis efficiency relative to DM-nitrophen” value was “the same as that of DM-nitrophen”. Further, the “photolysis efficiency relative to nitr-5 or nitr-7” value in series [1] (versus nitr-5 or nitr-7 (ref. 2)) is recorded as roughly 6 times. Moreover, the fluorescence emission entry in series [2] is on record as “virtually non-fluorescent”. In addition, in [2] (setting [9]), the “extinction coefficient at 260 nm” value is 5520 M⁻¹ cm⁻¹ and the “extinction coefficient at 347 nm” value amounted to 974 M⁻¹ cm⁻¹. Also, the “decrease in absorption at 260 nm on saturating Ca^2+” value in series [2] (saturating Ca^2+) turned out to be 10%. In addition, the “effect of 1 mM Mg^2+ on fluo-3 signal” value in series [3] (0.655 mM NP-EGTA with 0.55 mM Ca^2+) is “no effect on the fluo-3 signal; also recorded: no increase in the fluo-3 signal”. Also, in series [3] (frequency-doubled ruby laser, 347 nm), the “Ca^2+ liberation on irradiation in presence of Mg^2+ (fluo-3 signal)” value is reported as “liberates Ca^2+ from the NP-EGTA:Ca^2+ complex”. Moreover, in series [4], the pKd (in general, the Kd on a negative log10 scale, so that one unit is a factor of ten) was 2.06 and the “Kd for Mg^2+” value is recorded as “in the mM range”. The negative-log Kd (pKd) in series [5] was 7.10. For the same compound, in series [6], the “time to achieve half-maximal tension” value is listed as 17.9 ms; the “tension transients, NP-EGTA compared with DM-nitrophen” value is “identical, rapid tension transients”; the “maximal contraction / full tension after laser flash” value (from here on “maximal contraction / full tension”) is on record as “releases sufficient Ca^2+ to generate full tension in the muscle fiber”; the “Ca^2+ release as rate-limiting step for contraction” value is given as “also not rate-limiting”. In series [6] (listed as nitrophenyl-EGTA), the “time to achieve half-maximal tension” value is recorded as 18 ms and the “maximal contraction / full tension” value is given as “maximal contraction after a single flash”.
For the compound `CC(OP(=O)(O)O)c1ccccc1[N+](=O)[O-]` (centres unmarked) [caged-Pi, 1-(o-nitrophenyl)-ethyl phosphate, reference compound], the percent photolyzed in series [1] (after 15 s, caged-Pi 3.12 mM, 0.25 min) is reported as 15.1%.
With `COc1cc(C(CN(CC(=O)O)CC(=O)O)N(CC(=O)O)CC(=O)O)c([N+](=O)[O-])cc1OC` (centres unmarked) [DM-nitrophen, reference compound], in series [7], the “Ca^2+ release t1/2” value was no more than 180 microseconds. For the same compound, the pKd in [8] is 8.30. Also, in series [6], the “time to achieve half-maximal tension” value is on record as 18.1 ms; the “tension transients, NP-EGTA compared with DM-nitrophen” value is on record as “identical, rapid tension transients”; the “maximal contraction / full tension” value was “Rapid development of maximal tension”; the “Ca^2+ release as rate-limiting step for contraction” value is on record as “not rate-limiting”.
With `O=C(O)CN(CCOCCOCCN(CC(=O)O)CC(=O)O)CC(=O)O` [EGTA, ethylenebis(oxyethylenenitrilo)tetraacetic acid], in [8], the pKd was 6.82.
